Values joined by “and” are separate entries in the source; they are usually repeats but may differ in a detail not shown here. Equal entries are not always repeated.
Experiments:
Assay type in all cases: physicochemical
UV-Vis spectra = assay: UV-Vis spectra; set-up: λmax: unit not given here; settings: for λmax: UV-Vis absorption maxima; for log ε: UV-Vis, at the λmax of the same line
fluorescence spectra = settings: fluorescence maximum
ESR spectra = assay: ESR spectra
Excerpt: Also, the data on g value indicate that the dendritic PC generates radicals.

Row | λmax (UV-Vis spectra) | Fmax (fluorescence spectra) | g value (ESR spectra) | log ε (UV-Vis spectra) | Compound
1 | 687.50 and 654.00 and 624.50 | 625 and 700 | 1.9712 and 2.0245 |  | c1ccc2c(c1)-c1nc-2nc2[nH]c(nc3nc(nc4[nH]c(n1)c1ccccc41)-c1ccccc1-3)c1ccccc21 [H2—PC]
2 | 769.00 and 747.00 | 780 | 1.9713 and 2.0245 | 4.2560 and 4.2054 | O=C(O)c1cc2c(cc1C(=O)O)-c1nc-2nc2[n-]c(nc3nc(nc4[n-]c(n1)c1cc(C(=O)O)c(C(=O)O)cc41)-c1cc(C(=O)O)c(C(=O)O)cc1-3)c1cc(C(=O)O)c(C(=O)O)cc21.[Zn+2] [Zn—PC octacarboxylic acid, Zinc Phthalocyanine (PC) Octacarboxylic Acid]
3 | 655.50 and 607.00 | 715 | 1.9712 and 2.0245 | 4.5813 and 4.5391 | c1ccc2c(c1)C1=NC2=Nc2c3ccccc3c3[n]2[Zn][n]2c(c4ccccc4c2=NC2=NC(=N3)c3ccccc32)=N1 [Zn—PC]
4 | 690.50 and 772.50 | 805 | 2.0245 and 1.9713 |  | Zinc Phthalocyanine Tetracarboxylic Acid [Zn—PC tetracarboxylic acid]

Source: patent US8030342B2, “Dendritic polyamidoamine phthalocyanine derivative” (Nihon University, priority 2006, dated 2011)
